One experiment deals with NCI-H460. The arrangement: method as in earlier work. Particulars: reference drugs; cited from earlier work.
A further experiment has as its system hTERT RPE-1. Nature of the experiment: Parallel cytotoxicity assay on non-cancerous retina cells. It counts as cell-based. The note with it: hTERT-RPE1, 72 h, duplicate, mean ± deviation. On the procedure: (§1) A parallel cytotoxicity assay was performed on non-cancerous retina cells (hTERT RPE-1) in order to estimate the selectivity of the investigated compounds towards tumor cells. The inhibition of cell proliferation was calculated as IC50 by interpolation based on the semi-log dose response.
(§2) All cell lines were cultured as recommended by the suppliers. Culture media were purchased from Gibco Life Technologies, USA, and supplemented with 10% fetal bovine serum (HyClone, GE Healthcare Life Sciences, Logan, UT, USA). […] All stock solutions were prepared in DMSO.
(§3) After overnight incubation, cells were treated with the test compounds at seven different concentrations ranging from 100 to 6.4 × 10^−3 µM. […] The plates were incubated at 37 °C and monitored for 72 h in an IncuCyte® device (Essen BioScience Inc., Ann Arbor, MI, USA) for real-time imaging. Images were taken every 3 h, with one field imaged per well under 10× magnification. Cell growth was then quantified based on the percent cellular confluence as analysed by the IncuCyte® image analysis software and used to calculate IC50 values by linear interpolation. All tests have been performed in duplicate and the average values have been calculated.

Experiment [1] deals with seven different tumor cell lines. Nature of the experiment: Proliferation assays, best value over the seven tumor cell lines. It counts as cell-based. On the procedure: as §1, §2, §3
Experiment [2] has as its system HL-60 (acute myeloid leukemia). Nature of the experiment: Cell proliferation assay (IncuCyte). It counts as cell-based. Particulars: Homo sapiens, HL-60; 72 h, duplicate, mean ± deviation. On the procedure: as §1, §2, §3
The subject of experiment [3] is Z-138 (non-Hodgkin lymphoma). Nature of the experiment: Cell proliferation assay (IncuCyte). It counts as cell-based. On the procedure: as §1, §2, §3
Experiment [4] has as its system Capan-1 (pancreatic adenocarcinoma). The experiment can be described thus: Cell proliferation assay (IncuCyte). It counts as cell-based. On the procedure: as §1, §2, §3
For experiment [5], the system named is DND-41 (acute lymphoblastic leukemia). The experiment can be described thus: Cell proliferation assay (IncuCyte). It counts as cell-based. On the procedure:
as §1, §2, §3

Experiment [6] concerns HCT-116 (colorectal carcinoma). The experiment can be described thus: Cell proliferation assay (IncuCyte). Type of experiment: cell-based. On the procedure:
as §1, §2, §3

For experiment [7], the system named is K-562 (chronic myeloid leukemia). The experiment can be described thus: Cell proliferation assay (IncuCyte). Type of experiment: cell-based. Particulars: Homo sapiens, K562; 72 h, duplicate, mean ± deviation. On the procedure: as §1, §2, §3
The subject of experiment [8] is NCI-H460 (lung carcinoma). The experiment can be described thus: Cell proliferation assay (IncuCyte). It counts as cell-based. On the procedure:
as §1, §2, §3

Molecules are shown by their SMILES.

A word on the IC50: it is the midpoint of a concentration-inhibition curve.

Turning to `N.N.[Cl][Pt][Cl]` [Cisplatin], the IC50 in the experiment with NCI-H460 is 5330 nM.

Regarding `CCOC(=O)CC[C@@]1(N=[N+]=[N-])C[C@@]23CC[C@H]4[C@@](C)(CCC[C@@]4(C)C(=O)OC)[C@@H]2CC[C@@H]1C3` [Compound 11], the IC50 in the experiment with hTERT RPE-1 stood at 1800 ± 400 nM; in [1] (lowest IC50 over the tumor cell lines (Figure 4), read-out: IC50 min) it was 500 ± 200 nM; in [2] it was 3000 ± 1400 nM; in [3] (Homo sapiens, Z-138, 72 h, duplicate, mean ± deviation), 500 ± 200 nM; in experiment [4] (Homo sapiens, CAPAN-1, 72 h, duplicate, mean ± deviation), 1700 ± 500 nM; in experiment [5] (DND41, 72 h, duplicate, mean ± deviation), 1400 ± 300 nM. Moreover, the IC50 in [6] (Homo sapiens, HCT-116, 72 h, duplicate, mean ± deviation) was 1000 ± 400 nM; in [7], 8800 ± 2200 nM; in [8] (Homo sapiens, NCI-H460, 72 h, duplicate, mean ± deviation) it was 1300 ± 100 nM. Also, the SImax in experiment [1] (highest selectivity index over the tumor cell lines (Figure 4)) came to 3.6. Also, in [1] (highest selectivity indices), the “IC50 for retina (hTERT RPE-1) cells fold higher than for cancerous cells” value is recorded as “up to 43 fold”. Further, the “SI Z-138” value in experiment [3] (ratio IC50 hTERT RPE-1 / IC50 Z-138) is 3.6. Moreover, the “SI Capan-1” value in [4] (ratio IC50 hTERT RPE-1 / IC50 Capan-1) amounted to 1.1. For the same molecule, the “SI DND-41” value in [5] (ratio IC50 hTERT RPE-1 / IC50 DND-41) is 1.3. Further, in [6] (ratio IC50 hTERT RPE-1 / IC50 HCT-116), the “SI HCT-116” value came out at 1.8. Besides, the “SI NCI-H460” value in [8] (ratio IC50 hTERT RPE-1 / IC50 NCI-H460) came to 1.4.

Values taken from publication PMC8347134, “Preparation of Antiproliferative Terpene-Alkaloid Hybrids by Free Radical-Mediated Modification of ent-Kauranic Derivatives” (Molecules, 2021).
